Test results: patent US11382918B2, “Methods for treating Huntington's Disease” (PTC Therapeutics, Inc., priority 2017, dated 2022)
Structures can show the parent of a compound that is named as a salt.

System: Endogenous Huntingtin Protein (HTT)
Test: Endogenous Huntingtin Protein Assay (ELISA-based MSD electrochemiluminescence)
Format: cell-based
Conditions: Table 1
Protocol: Compounds of Formula (I) were tested using the Meso Scale Discovery (MSD) Assay provided in International Application No. PCT/US2016/066042, filed on Dec. 11, 2016 and claiming priority to U.S. Provisional Application 62/265,652 filed on Dec. 10, 2015, published as International Publication No. WO 2017/100726 on Jun. 15, 2017, the entire contents of which are incorporated herein by reference.
The Endogenous Huntingtin Protein assay used in Example 1 was developed using the ELISA-based MSD electrochemiluminescence assay platform.
Endogenous Huntingtin Protein Assay
Meso Scale Discovery (MSD) 96-well or 384-well plates were coated overnight at 4° C. with MW1 (expanded polyglutamine) or MAB2166 monoclonal antibody (for capture) at a concentration of 1 μg/mL in PBS (30 μL per well). Plates were then washed three times with 300 µL wash buffer (0.05% Tween-20 in PBS) and blocked (100 μL blocking buffer; 5% BSA in PBS) for 4-5 hours at room temperature with rotational shaking and then washed three times with wash buffer.
Samples (25 μL) were transferred to the antibody-coated MSD plate and incubated overnight at 4° C. After removal of the lysates, the plate was washed three times with wash buffer, and 25 μL of #5656S (Cell signaling; rabbit monoclonal) secondary antibody (diluted to 0.25 μg/mL in 0.05% Tween-20 in blocking buffer) was added to each well and incubated with shaking for 1 Hour at room temperature. Following incubation with the secondary antibody, the wells were rinsed with wash buffer after which 25 μL of goat anti-rabbit SULFO TAG secondary detection antibody (required aspect of the MSD system) (diluted to 0.25 μg/mL in 0.05% Tween-20 in blocking buffer) was added to each well and incubated with shaking for 1 hour at room temperature. After rinsing three times with wash buffer, 150 μL of read buffer T with surfactant (MSD) were added to each empty well, and the plate was imaged on a SI 6000 imager (MSD) according to manufacturers' instructions provided for 96- or 384-well plates.

Row | Compound | IC50
1 | CCN1CC=C(c2cn3c(=O)cc(-c4ccc5c(cnn5C)c4)nc3cn2)CC1 [compound 507, 7-(1-ethyl-1,2,3,6-tetrahydropyridin-4-yl)-2-(1-methyl-1H-indazol-5-yl)-4H-pyrazino[1,2-a]pyrimidin-4-one] | 3000 to 33000 nM
2 | CCc1nc(C)cn2nc(-c3cc(=O)n4cc(C5CCN(C(C)C)CC5)ccc4n3)cc12 [compound 679, 2-(4-ethyl-6-methylpyrazolo[1,5-a]pyrazin-2-yl)-7-[1-(propan-2-yl)piperidin-4-yl]-4H-pyrido[1,2-a]pyrimidin-4-one] | 3000 to 33000 nM
3 | Cc1cn2nc(-c3cc(=O)n4cc(N(C)C5CC(C)(C)NC(C)(C)C5)cc(C)c4n3)cc2c(C)n1 [compound 852, 2-(4,6-dimethylpyrazolo[1,5-a]pyrazin-2-yl)-9-methyl-7-[methyl(2,2,6,6-tetramethylpiperidin-4-yl)amino]-4H-pyrido[1,2-a]pyrimidin-4-one] | 3000 to 33000 nM
4 | Cc1csc(-c2cc(=O)n3cc(N4CCNCC4)ccc3n2)n1 [compound 163, 2-(4-methyl-1,3-thiazol-2-yl)-7-(piperazin-1-yl)-4H-pyrido[1,2-a]pyrimidin-4-one] | 3000 to 33000 nM
5 | Cc1cc(C2=CC(C)(C)NC(C)(C)C2)cn2c(=O)cc(-c3ccc4nn(C)cc4c3)nc12 [compound 865, 9-methyl-2-(2-methyl-2H-indazol-5-yl)-7-(2,2,6,6-tetramethyl-1,2,3,6-tetrahydropyridin-4-yl)-4H-pyrido[1,2-a]pyrimidin-4-one] | 3000 to 33000 nM
6 | CCN1CCC(c2cc(C)c3nc(-c4cc5c(C)nc(C)cn5n4)cc(=O)n3c2)CC1 [compound 702, 2-(4,6-dimethylpyrazolo[1,5-a]pyrazin-2-yl)-7-(1-ethylpiperidin-4-yl)-9-methyl-4H-pyrido[1,2-a]pyrimidin-4-one] | 1000 to 3000 nM
7 | CCc1nc(C)cn2nc(-c3cc(=O)n4cc(N5CCN[C@@H](C)C5)cc(C)c4n3)cc12 [compound 787, 2-(4-ethyl-6-methylpyrazolo[1,5-a]pyrazin-2-yl)-9-methyl-7-[(3S)-3-methylpiperazin-1-yl]-4H-pyrido[1,2-a]pyrimidin-4-one] | 3000 to 33000 nM
8 | COc1ncc(-c2cc(=O)n3cc(N4CCNCC4)ccc3n2)cc1Cl [compound 96, 2-(5-chloro-6-methoxypyridin-3-yl)-7-(piperazin-1-yl)-4H-pyrido[1,2-a]pyrimidin-4-one] | 3000 to 33000 nM
9 | Cc1cn2cc(-c3cc(=O)n4cc(N5CCN(C)CC5)ccc4n3)cc(C)c2n1 [compound 868, 2-(2,8-dimethylimidazo[1,2-a]pyridin-6-yl)-7-(4-methylpiperazin-1-yl)-4H-pyrido[1,2-a]pyrimidin-4-one] | 1000 to 3000 nM
10 | C[C@H]1CN(c2ccc3nc(-c4ccc5c(cnn5C)c4)cc(=O)n3c2)CCN1 [compound 553, 2-(1-methyl-1H-indazol-5-yl)-7-[(3S)-3-methylpiperazin-1-yl]-4H-pyrido[1,2-a]pyrimidin-4-one] | 3000 to 33000 nM
11 | Cc1cc(-c2cc(=O)n3cc(N4CCN[C@@H](C)C4)ccc3n2)cc2cnn(C)c12 [compound 777, 2-(1,7-dimethyl-1H-indazol-5-yl)-7-[(3S)-3-methylpiperazin-1-yl]-4H-pyrido[1,2-a]pyrimidin-4-one] | 3000 to 33000 nM
12 | Cc1cn2nc(-c3cc(=O)n4cc(N5CCC(C)(N(C)C)CC5)ccc4n3)cc2c(C)n1 [compound 706, 7-[4-(dimethylamino)-4-methylpiperidin-1-yl]-2-(4,6-dimethylpyrazolo[1,5-a]pyrazin-2-yl)-4H-pyrido[1,2-a]pyrimidin-4-one] | 3000 to 33000 nM
13 | CCc1nc(C)cn2nc(-c3cc(=O)n4cc(C5=CCNCC5)ccc4n3)cc12 [compound 763, 2-(4-ethyl-6-methylpyrazolo[1,5-a]pyrazin-2-yl)-7-(1,2,3,6-tetrahydropyridin-4-yl)-4H-pyrido[1,2-a]pyrimidin-4-one] | 100 to 500 nM
14 | COc1cc(OS(=O)(=O)C(F)(F)F)ccc1-c1cc(=O)n2cc(C3=CCN(C(=O)OC(C)(C)C)CC3)ccc2n1 [compound 848, tert-butyl 4-[2-(2-methoxy-4-{[(trifluoromethyl)sulfonyl]oxy}phenyl)-4-oxo-4H-pyrido[1,2-a]pyrimidin-7-yl]-3,6-dihydropyridine-1(2H)-carboxylate] | 3000 to 33000 nM
15 | O=c1cc(-c2cnn(C3CCCCO3)c2)nc2ccc(N3CCNCC3)cn12 (stereo not shown) [compound 854, 7-(piperazin-1-yl)-2-[1-(tetrahydro-2H-pyran-2-yl)-1H-pyrazol-4-yl]-4H-pyrido[1,2-a]pyrimidin-4-one] | 3000 to 33000 nM
16 | Cc1cn2cc(-c3cc(=O)n4cc(N5CCNCC5)ccc4n3)cc(C)c2n1 [compound 141, 2-(2,8-dimethylimidazo[1,2-a]pyridin-6-yl)-7-(piperazin-1-yl)-4H-pyrido[1,2-a]pyrimidin-4-one] | 1000 to 3000 nM
17 | CCN1CCN(c2ccc3nc(-c4cc(F)c5nc(C)oc5c4)cc(=O)n3c2)CC1 [compound 309, 7-(4-ethylpiperazin-1-yl)-2-(4-fluoro-2-methyl-1,3-benzoxazol-6-yl)-4H-pyrido[1,2-a]pyrimidin-4-one] | 1000 to 3000 nM
18 | Cc1nc2ccc(-c3cc(=O)n4cc(N5CCNC(C)(C)C5)ccc4n3)cc2o1 [compound 194, 7-(3,3-dimethylpiperazin-1-yl)-2-(2-methyl-1,3-benzoxazol-6-yl)-4H-pyrido[1,2-a]pyrimidin-4-one] | 3000 to 33000 nM
19 | Cc1cn2cc(-c3cc(=O)n4cc(C5CCN(C)CC5)ncc4n3)ccc2n1 [compound 579, 2-(2-methylimidazo[1,2-a]pyridin-6-yl)-7-(1-methylpiperidin-4-yl)-4H-pyrazino[1,2-a]pyrimidin-4-one] | 3000 to 33000 nM

Results, then the compound that gave them:

Row | IC50 | Compound
20 | 1000 to 3000 nM | Cc1cn2nc(-c3cc(=O)n4cc(C5CCN(C)CC5)ncc4n3)cc2c(C)n1 [compound 503, 2-(4,6-dimethylpyrazolo[1,5-a]pyrazin-2-yl)-7-(1-methylpiperidin-4-yl)-4H-pyrazino[1,2-a]pyrimidin-4-one]
21 | < 100 nM | CCc1nc(C)cn2nc(-c3cc(=O)n4cc(C5CCNCC5)ncc4n3)cc12 [compound 653, 2-(4-ethyl-6-methylpyrazolo[1,5-a]pyrazin-2-yl)-7-(piperidin-4-yl)-4H-pyrazino[1,2-a]pyrimidin-4-one]
22 | 100 to 500 nM | CCc1nc(C)cn2nc(-c3cc(=O)n4cc(C5CCN(CC)CC5)ncc4n3)cc12 [compound 655, 2-(4-ethyl-6-methylpyrazolo[1,5-a]pyrazin-2-yl)-7-(1-ethylpiperidin-4-yl)-4H-pyrazino[1,2-a]pyrimidin-4-one]
23 | 1000 to 3000 nM | CCN1CCC(c2cn3c(=O)cc(-c4ccc5nn(C)cc5c4)nc3cn2)CC1 [compound 568, 7-(1-ethylpiperidin-4-yl)-2-(2-methyl-2H-indazol-5-yl)-4H-pyrazino[1,2-a]pyrimidin-4-one]
24 | 500 to 1000 nM | Cc1cn2cc(-c3cc(=O)n4cc(N5CCN6CCC[C@@H]6C5)ccc4n3)cc(F)c2n1 [compound 272, 2-(8-fluoro-2-methylimidazo[1,2-a]pyridin-6-yl)-7-[(8aR)-hexahydropyrrolo[1,2-a]pyrazin-2(1H)-yl]-4H-pyrido[1,2-a]pyrimidin-4-one]
25 | 100 to 500 nM | Cc1cc(C2CCN(CCO)CC2)cn2c(=O)cc(-c3ccc4nn(C)cc4c3)nc12 [compound 711, 7-[1-(2-hydroxyethyl)piperidin-4-yl]-9-methyl-2-(2-methyl-2H-indazol-5-yl)-4H-pyrido[1,2-a]pyrimidin-4-one]
26 | 500 to 1000 nM | CCc1nc(C)cn2nc(-c3cc(=O)n4cc(C5CCN(CCF)CC5)ccc4n3)cc12 [compound 668, 2-(4-ethyl-6-methylpyrazolo[1,5-a]pyrazin-2-yl)-7-[1-(2-fluoroethyl)piperidin-4-yl]-4H-pyrido[1,2-a]pyrimidin-4-one]
27 | 1000 to 3000 nM | Cc1cn2cc(-c3cc(=O)n4cc(N5CCNCC5)ccc4n3)ccc2n1 [compound 109, 2-(2-methylimidazo[1,2-a]pyridin-6-yl)-7-(piperazin-1-yl)-4H-pyrido[1,2-a]pyrimidin-4-one]
28 | 100 to 500 nM | Cc1cc(-c2cc(=O)n3cc(C4CCN(C)CC4)ccc3n2)cc2cn(C)nc12 [compound 752, 2-(2,7-dimethyl-2H-indazol-5-yl)-7-(1-methylpiperidin-4-yl)-4H-pyrido[1,2-a]pyrimidin-4-one]
29 | 100 to 500 nM | Cc1cc(C2CCN(C3CC3)CC2)cn2c(=O)cc(-c3ccc4nn(C)cc4c3)nc12 [compound 718, 7-(1-cyclopropylpiperidin-4-yl)-9-methyl-2-(2-methyl-2H-indazol-5-yl)-4H-pyrido[1,2-a]pyrimidin-4-one]
30 | 500 to 1000 nM | Cc1cn2cc(-c3cc(=O)n4cc(N5CCN(C)CC5)ccc4n3)cc(F)c2n1 [compound 269, 2-(8-fluoro-2-methylimidazo[1,2-a]pyridin-6-yl)-7-(4-methylpiperazin-1-yl)-4H-pyrido[1,2-a]pyrimidin-4-one]
31 | 100 to 500 nM | CCN1CCC(c2cn3c(=O)cc(-c4cc(C)c5nn(C)cc5c4)nc3c(C)n2)CC1 [compound 874, 2-(2,7-dimethyl-2H-indazol-5-yl)-7-(1-ethylpiperidin-4-yl)-9-methyl-4H-pyrazino[1,2-a]pyrimidin-4-one hydrochloride (1:1)]
